Legend:
[1] = Anti-obesity test using Zucker fatty rats; assay type: in vivo; conditions: 100 mg/kg oral, once a day over 4 weeks, relative to control group
Text: Anti-Obesity Test Using Zucker Fatty Rats
Zucker fatty rats are obese rats discovered by Zucker et al., in 1961 as mutants among 13 M rats, which are a hybrid between 13C and M rats. These rats (fa/fa) start to appear distinctly obese from normal broods around the age of 3 weeks. As they age, the weight difference between the fatty rats and normal rats increases. Zucker fatty rats are currently kept by a variety of organizations as simple obesity models, and are readily obtainable.
This test was performed using this rat model to evaluate the anti-obesity action of the compounds of the invention. The preparation method of test samples and the test procedures are described below:
The test samples were prepared in the same manner as in Test Example 2.
Zucker fatty rats and lean rats (both from Charles River Japan) were purchased at the age of 5 weeks. They were divided into groups (10 rats per group) according to body weight when they reached 6 weeks old. After acclimatization, the administration of test samples was initiated when the rats reached 8 weeks old. Test samples were orally administered using an oral gavage so that the compounds of the invention contained in the test samples were given in an amount of 100 mg/kg body weight (test sample dosage: 5 ml/kg body weight). The test samples were administered once a day over 4 weeks at a specific time of day.
As a control, a group of rats were administered with the same amount of 5% aqueous gum arabic solution (5 ml/kg body weight) instead of the test samples.
The rats of all groups were weighed on the last day of administration. The average body weight of the rats of each test group was compared with the average body weight (standard weight) of the rats of the control group to obtain the weight variations (differences). The weight differences were expressed as percentages in relation to the standard weight. The values thus calculated are referred to as “weight change %”. When a weight difference is negative relative to the standard weight, weight change % is shown with “−” (minus).
During the test period, the rats of the respective groups had free access to rat feed (“CRF-1”, manufactured by Oriental Yeast, Co., Ltd.) and water (tap water).

[2] = Therapeutical effect on olive oil-induced triglyceride hyperlipidemia models; assay type: in vivo; conditions: once a day for one week, SD rats, 2 h after olive oil
Protocol: Test of Therapeutical Effect on Olive Oil-Induced Triglyceride Hyperlipidemia Models
To conduct this test, 6-week-old SD rats (purchased from Charles River Japan) were used.
According to the body weight of the test rats when they were 5 weeks old, the test rats were divided into test groups and a control group with 6 rats per group.
A predetermined amount of each compound prepared in the Examples was measured and placed in an agate mortar. While 5% aqueous gum arabic solution was gradually introduced to the mortar, the compound was uniformly ground and suspended. Test samples were prepared by further adding 5% aqueous gum arabic solution gradually. Subsequently, these test samples were subjected to ultrasonic washing for 10 minutes to homogenize. Test samples were prepared as and when necessary.
The rats of the test groups were orally administered with the compounds of the invention such that rats received the compounds in an amount of 10, 30, or 100 mg/kg. The compounds of the invention were formulated as 5% gum arabic suspensions as described above.
The rats of the control group were orally administered with 5% aqueous gum arabic solution (not containing the compounds of the invention) in an amount of 5 ml/kg body weight. Administration was conducted once a day continuously for one week at a specific time of day after the rats reached 6 weeks of age. This test was performed under non-fasting conditions (rats had free access to feed and water), and the rats were fasted after the final administration of the compounds or 5% aqueous gum arabic solution.
Two hours after the final administration, olive oil was orally administered to the rats from both groups in an amount of 3 ml/kg body weight.
Two hours after the olive oil administration, blood was collected from the abdominal aorta of the rats of the respective groups using a heparinized syringe. The plasma was centrifugally separated from the blood at a temperature of 4° C., and the triglyceride level of the plasma was measured. A Hitachi 7170 automatic analyzer was used as the measuring instrument. Using the values measured from the test groups and control group, the decrease (%) in plasma triglyceride level was calculated according to the following equation: Decrease (%) in plasma triglyceride concentration=(1−E/C)×100 wherein E represents the average plasma triglyceride level in each test group; and C represents the average plasma triglyceride level in the control group.

[3] = Anti-obesity test using AKR mice (high-fat feed); assay type: in vivo; conditions: 1 mg per gram of feed in high-fat feed, 7 weeks, AKR/J mice, relative to high-fat feed control group
Text: Anti-Obesity Test Using AKR Mice
Furthermore, this test enables the evaluation of therapeutic effects on diabetes. That is, it is reported that insulinemia can be observed in AKR/J mice when they are fed with a high-fat diet (see Am. J. Physiol. 266 (5 Pt 2), May 1994: R1423-8). It is thus known that insulinemia is strongly associated with diabetes (see, for example, J. Cardiovasc. Nurs. 16 (2), January 2002: 17-23). Therefore, this test can verify the therapeutic effects of the compounds of the present invention, used as test compounds, on diabetes.
For rat feed, powdered CRF-1 (Charles River Formula 1, manufactured by Oriental Yeast, Co., Ltd.) was used as normal feed. As high-fat feed, that prepared by blending CRF-1 with 18% safflower oil (Oriental Yeast, Co., Ltd.) was used.
Test substances were blended with the high-fat feed in an amount of 1 mg per gram of CRF-1.
AKR/J mice (from CLEA Japan, Inc.) were purchased at the age of 4 weeks. They were roughly divided into 2 groups according to body weight when the mice reached 5 weeks old. During this period, all mice were given the normal feed.
Subsequently, the mice of one group (8 mice) continued to be fed with the normal feed (normal feed group). The mice of the other group (8×(the number of the test substances+1) mice) were given the high-fat feed (high-fat feed group).
The body weight of the mice of each group was measured daily. […] These mice were further reared for 7 weeks (“test substances+high-fat feed groups”; n=8 per type of test substance). Specifically, the administration of the test substances was continued for 7 weeks. A group of mice to which high-fat feed containing no test substance was continued to be given was used as a control (high-fat feed control group; n=8).
Four hours after the feeding on the last day of the 7-week test (the last day of the test), the body weight of the mice of the “test substances+high fat feed groups” was measured. Blood was collected from the abdominal aorta of the mice using a heparinized syringe, and the leptin and insulin levels in the plasma were measured using an Elisa kit (produced by Morinaga). The mice of the other groups (normal feed group and high-fat feed control group) were reared till the last day of the test as above, and 4 hours after the last feeding on the last day of the test the measurements were performed according to the same procedures.
The average values of the test results (body weight, leptin level, and insulin level) of the test substances+high-fat feed groups to which the compounds prepared in Examples (Examples 10 and 58) were used as test substances (hereinbelow referred to as the “Example Compound 10-mixed high-fat feed group” and “Example Compound 58-mixed high-fat feed group”) were compared with the respective average values (standard values) of the results obtained from the mice of the high-fat control group to obtain the variations (differences). The differences were expressed as percentages in relation to the standard values. The values thus calculated were referred to as “weight change (%)”, “leptin level change (%)”, and “insulin level change (%)”. In the table below, the symbols “−” (minus) indicate that the differences are negative relative to the standard values.

With `COc1cc(-c2cn3ccccc3n2)ccc1OCc1ccc(Br)cc1F` [Example 58] the “Weight Change (%)” value [1] was −19%, the melting point was 111 to 113 °C and the “Decrease in plasma triglyceride level (%)” value (“Decrease … (%)” for short) ([2]; 10 mg/kg oral) was 31%. For the same compound, the “Decrease … (%)” value ([2]; 30 mg/kg oral) was 66%, the “Decrease … (%)” value ([2]; 100 mg/kg oral) was 79% and the “Weight Change (%)” value [3] was −10%. For the same compound, the “Insulin level change (%)” value ([3]; plasma) was −12% and the “Leptin level change (%)” value ([3]; plasma) was −55%.
